These results are taken from patent US8481732B2 (Incyte Corporation, priority 2009, dated 2013).

Structures are written as SMILES.

The target of the assay is T1, histamine H4 receptor (Homo sapiens, UniProt Q9H3N8).
T1 construct: expressed in transfected cells; host or cells: HEK293SFM cells (membrane preparation)
T1 sequence (Q9H3N8 whole entry): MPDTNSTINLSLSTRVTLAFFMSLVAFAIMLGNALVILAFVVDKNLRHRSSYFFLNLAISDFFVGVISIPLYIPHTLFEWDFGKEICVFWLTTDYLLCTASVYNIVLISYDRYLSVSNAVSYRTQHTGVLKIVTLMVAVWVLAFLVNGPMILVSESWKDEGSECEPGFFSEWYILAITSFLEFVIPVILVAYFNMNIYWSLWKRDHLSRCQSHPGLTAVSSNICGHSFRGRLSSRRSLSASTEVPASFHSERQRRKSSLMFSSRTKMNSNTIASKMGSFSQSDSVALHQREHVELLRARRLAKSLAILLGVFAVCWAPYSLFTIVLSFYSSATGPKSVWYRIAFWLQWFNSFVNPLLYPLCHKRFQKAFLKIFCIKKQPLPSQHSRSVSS
The assay is described as follows: H4 Membrane Binding Assay (3H-Histamine displacement). The note with it: membranes of recombinant HEK293SFM cells, 10 nM 3H-Histamine, 1.5 hr at room temperature. Summed up:
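Membranes from HEK293SFM cells expressing human H4 (also human H1–H3, mouse H4), prepared in ice-cold 50 mM Tris-HCl pH 7.5. [3H]-histamine displacement, nonspecific binding defined with 1000× unlabeled ligand. Bound radioactivity separated on PEI-treated GF/B filters and measured by liquid scintillation counting.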
`COC(=O)c1ccc(Oc2cccc(CC(NC(=O)c3ccc4c(N5CCN(C)CC5)nc(N)nc4c3)C(=O)N(C)C)c2)cc1` (stereo not drawn) [Example 169, Methyl 4-{3-[2-({[2-amino-4-(4-methylpiperazin-1-yl)quinazolin-7-yl]carbonyl}amino)-3-(dimethylamino)-3-oxopropyl]phenoxy}benzoate]: the IC50 was found to be 0.023 µM.
For `COc1ccc(C#N)c(Oc2cccc(CC(NC(=O)c3ccc4c(N5CCN(C)CC5)nc(N)nc4c3)C(=O)N(C)C)c2)c1` (stereo not drawn) [Example 170, 2-Amino-N-[1-[3-(2-cyano-5-methoxyphenoxy)benzyl]-2-(dimethylamino)-2-oxoethyl]-4-(4-methylpiperazin-1-yl)quinazoline-7-carboxamide], the IC50 worked out at 0.023 µM.
With `CN1CCN(c2nc(N)nc3cc(C(=O)NC(Cc4cccc(Oc5cc(C#N)ccc5C(F)(F)F)c4)C(=O)N(C)C)ccc23)CC1` (stereo not drawn) [Example 171, 2-Amino-N-[1-{3-[5-cyano-2-(trifluoromethyl)phenoxy]benzyl}-2-(dimethylamino)-2-oxoethyl]-4-(4-methylpiperazin-1-yl)quinazoline-7-carboxamide], the IC50 was 0.013 µM.
Regarding `CN1CCN(c2nc(N)nc3cc(C(=O)NC(Cc4cccc(Oc5ccc(Cl)cc5C#N)c4)C(=O)N(C)C)ccc23)CC1` (stereo not drawn) [Example 172, 2-Amino-N-[1-[3-(4-chloro-2-cyanophenoxy)benzyl]-2-(dimethylamino)-2-oxoethyl]-4-(4-methylpiperazin-1-yl)quinazoline-7-carboxamide], the IC50 was found to be 0.026 µM.
As to `Cc1ccc(C#N)c(Oc2cccc(CC(NC(=O)c3ccc4c(N5CCN(C)CC5)nc(N)nc4c3)C(=O)N(C)C)c2)n1` (stereo not drawn) [Example 173, 2-Amino-N-[1-{3-[(3-cyano-6-methylpyridin-2-yl)oxy]benzyl}-2-(dimethylamino)-2-oxoethyl]-4-(4-methylpiperazin-1-yl)quinazoline-7-carboxamide], the IC50 came to 0.067 µM.
Take `CN1CCN(c2nc(N)nc3cc(C(=O)NC(Cc4cccc(Oc5cccc(C#N)c5)c4)C(=O)N(C)C)ccc23)CC1` (stereo not drawn) [Example 174, 2-Amino-N-(3-(3-(3-cyanophenoxy)phenyl)-1-(dimethylamino)-1-oxopropan-2-yl)-4-(4-methylpiperazin-1-yl)quinazoline-7-carboxamide]: the IC50 stood at 0.023 µM.
On to `CN1CCN(c2nc(N)nc3cc(C(=O)NC(Cc4cccc(OCc5cccc(C#N)c5)c4)C(=O)N(C)C)ccc23)CC1` (stereo not drawn) [Example 175, 2-Amino-N-[1-{3-[(3-cyanobenzyl)oxy]benzyl}-2-(dimethylamino)-2-oxoethyl]-4-(4-methylpiperazin-1-yl)quinazoline-7-carboxamide], for which the IC50 is 0.018 µM.
`CC(Oc1cccc(CC(NC(=O)c2ccc3c(N4CCN(C)CC4)nc(N)nc3c2)C(=O)N(C)C)c1)c1cccc(C(F)(F)F)c1` (stereo not drawn) [Example 176, 2-Amino-N-[2-(dimethylamino)-2-oxo-1-(3-{1-[3-(trifluoromethyl)phenyl]ethoxy}benzyl)ethyl]-4-(4-methylpiperazin-1-yl)quinazoline-7-carboxamide]: the IC50 is 0.051 µM.
As for `CN1CCN(c2nc(N)nc3cc(C(=O)NC(Cc4cccc(OCc5ccc(OC(F)(F)F)cc5)c4)C(=O)N(C)C)ccc23)CC1` (stereo not drawn) [Example 177, 2-Amino-N-[2-(dimethylamino)-2-oxo-1-(3-{[4-(trifluoromethoxy)benzyl]oxy}benzyl)ethyl]-4-(4-methylpiperazin-1-yl)quinazoline-7-carboxamide], the figure is 0.056 µM.
Turning to `COc1ccc(Oc2cccc(CNC(=O)c3ccc4c(N5CCN(C)CC5)nc(N)nc4c3)c2)cc1` [Example 178, 2-Amino-N-[3-(4-methoxyphenoxy)benzyl]-4-(4-methylpiperazin-1-yl)quinazoline-7-carboxamide], the IC50 is 0.0075 µM.
As for `COC(=O)c1ccc(Oc2cccc(CNC(=O)c3ccc4c(N5CCN(C)CC5)nc(N)nc4c3)c2)cc1` [Example 179, Methyl 4-{3-[({[2-amino-4-(4-methylpiperazin-1-yl)quinazolin-7-yl]carbonyl}amino)methyl]phenoxy}benzoate], the figure is 0.046 µM; as for `COc1ccc(C#N)c(Oc2cccc(CNC(=O)c3ccc4c(N5CCN(C)CC5)nc(N)nc4c3)c2)c1` [Example 180, 2-Amino-N-[3-(2-cyano-5-methoxyphenoxy)benzyl]-4-(4-methylpiperazin-1-yl)quinazoline-7-carboxamide], 0.025 µM; as for `CN1CCN(c2nc(N)nc3cc(C(=O)NCc4cccc(Oc5nccc6ccccc56)c4)ccc23)CC1` [Example 181, 2-Amino-N-[3-(isoquinolin-1-yloxy)benzyl]-4-(4-methylpiperazin-1-yl)quinazoline-7-carboxamide], 0.016 µM.
To `Cc1ccnc(Oc2cccc(CNC(=O)c3ccc4c(N5CCN(C)CC5)nc(N)nc4c3)c2)c1` [Example 182, 2-Amino-4-(4-methylpiperazin-1-yl)-N-{3-[(4-methylpyridin-2-yl)oxy]benzyl}quinazoline-7-carboxamide] belongs 0.056 µM; to `CN1CCN(c2nc(N)nc3cc(C(=O)NCc4cccc(Oc5cc(C#N)ccn5)c4)ccc23)CC1` [Example 183, 2-Amino-N-{3-[(4-cyanopyridin-2-yl)oxy]benzyl}-4-(4-methylpiperazin-1-yl)quinazoline-7-carboxamide], 0.065 µM.
On to `CCOC(=O)c1cccnc1Oc1cccc(CNC(=O)c2ccc3c(N4CCN(C)CC4)nc(N)nc3c2)c1` [Example 184, Ethyl 2-{3-[({[2-amino-4-(4-methylpiperazin-1-yl)quinazolin-7-yl]carbonyl}amino)methyl]phenoxy}nicotinate], for which the IC50 amounted to 0.043 µM.
To `CCOC(=O)c1sc(Oc2cccc(CNC(=O)c3ccc4c(N5CCN(C)CC5)nc(N)nc4c3)c2)nc1C` [Example 185, Ethyl 2-{3-[({[2-amino-4-(4-methylpiperazin-1-yl)quinazolin-7-yl]carbonyl}amino)methyl]phenoxy}-4-methyl-1,3-thiazole-5-carboxylate] belongs 0.0084 µM.
To `CCOC(=O)c1cc(C)nc(Oc2cccc(CNC(=O)c3ccc4c(N5CCN(C)CC5)nc(N)nc4c3)c2)c1C#N` [Example 186, Ethyl 2-{3-[({[2-amino-4-(4-methylpiperazin-1-yl)quinazolin-7-yl]carbonyl}amino)methyl]phenoxy}-3-cyano-6-methylisonicotinate] belongs 0.0079 µM; to `Cc1cnc(C)c(Oc2cccc(CNC(=O)c3ccc4c(N5CCN(C)CC5)nc(N)nc4c3)c2)n1` [Example 187, 2-Amino-N-{3-[(3,6-dimethylpyrazin-2-yl)oxy]benzyl}-4-(4-methylpiperazin-1-yl)quinazoline-7-carboxamide], 0.041 µM.
For the compound `CN1CCN(c2nc(N)nc3cc(C(=O)NCc4cccc(Oc5cnc6ccccc6n5)c4)ccc23)CC1` [Example 188, 2-Amino-4-(4-methylpiperazin-1-yl)-N-[3-(quinoxalin-2-yloxy)benzyl]quinazoline-7-carboxamide], the 50% inhibitory concentration (IC50) was 0.013 µM.
On to `Cc1cccc(Oc2cccc(CNC(=O)c3ccc4c(N5CCN(C)CC5)nc(N)nc4c3)c2)c1C#N` [Example 189, 2-Amino-N-[3-(2-cyano-3-methylphenoxy)benzyl]-4-(4-methylpiperazin-1-yl)quinazoline-7-carboxamide], for which the IC50 came to 0.0066 µM.
